The source of these data is patent US8101740B2, “Positron emission tomography probes for imaging immune activation and selected cancers” (The Regents of the University of California, priority 2007, dated 2012).

Data set [1] is described as follows: probe accumulation in necropsy tissue of mouse strains incl. BDC-2.5 (type 1 diabetes model). In kind it is in vivo, BDC-2.5 mice. Conditions: necropsy tissue samples. The source says:
Elevated retention of the [^18F]D-FAC probe in joints and the intestine over physiologic uptake values may reflect the presence of an active inflammatory processes that is characteristic of rheumatoid arthritis and inflammatory bowel disease, respectively. [^18F]D-FAC microPET can also be used to detect overt autoreactive immune activation in a BDC-2.5 mouse model that is prone to type 1 diabetes (FIG. 8). In FIG. 8A, the 1 mm coronal sections illustrate the pattern of [^18F]D-FAC probe accumulation in BDC-2.5 mice. (Abbreviations: CV, cervical LNs; AX, axillary LNs; BR, brachial LNs; IN, inguinal LNs; THY, Thymus; GI, Gastrointestinal tract; H, heart.) In FIG. 8B, [^18F]D-FAC accumulation is measured in necropsy tissue samples from BL/6, BALB/c, NOD LTJ, and BDC-2.5 mice.
FIG. 8 presents the results of microPET/CT imaging performed on BDC-2.5 T cell receptor transgenic mice injected with the [^18F]D-FAC probe. The BDC-2.5 strain is a well-established animal model for type I (autoimmunity-based) diabetes. In FIG. 8A, the 1 mm coronal sections illustrate the pattern of the [^18F]D-FAC probe accumulation in BDC-2.5 mice. (Abbreviations: CV, cervical LNs; AX, axillary LNs; BR, brachial LNs; IN, inguinal LNs; THY, Thymus; GI, Gastrointestinal tract; H, heart.) In FIG. 8B, [^18F]D-FAC accumulation is measured in necropsy tissue samples from BL/6, BALB/c, NOD Ltj and BDC-2.5 mice. […]

Data set [2] concerns L1210 wild type or 10K subcutaneous tumors. In words: PET of subcutaneous L1210 wild type and 10K tumors. In kind it is in vivo, SCID mice. Conditions: 4 days after injection. The procedure: To investigate whether [^18F]D-FAC PET can distinguish gemcitabine-sensitive cancer cells from the resistant cancer cells in vivo, mice were injected with L1210 wild type or 10K cells to establish subcutaneous tumors; mice were scanned with [^18F]FDG PET to confirm that implanted cells were viable and growing in vivo and [^18F]D-FAC PET scans were carried out to compare D-FAC accumulation in gemcitabine sensitive versus resistant cells. […] The mice were injected 4 days prior to imaging.
Mice were challenged with the MoMSV onco-retrovirus.

In the case of `Nc1ccn([C@@H]2O[C@H](CO)[C@@H](O)[C@@H]2[18F])c(=O)n1` [[^18F]D-FAC, 1-(2′-deoxy-2′-[^18F]fluoro-β-D-arabinofuranosyl)cytosine], the “accumulation in spleen and lymph nodes among BL/6, BALB/c, NOD Ltj and BDC-2.5 mice” value in data set [1] is listed as “highest levels”. Moreover, the route of clearance entry (dynamic microPET/CT time-activity curves) was “predominantly cleared through the kidney”. In addition, for the setting “mouse, in vivo”, the “retention in the brain and the myocardium” value was “low retention”. Moreover, for the setting “one hour after intravenous injection”, the “organs with accumulated radioactivity” value is “thymus, spleen, intestine, bone/bone marrow and, to a lesser extent, in the liver”. Further, the “Spleen, % ID/g per organ normalized to % ID/g muscle” value (spleen, 60 min after intravenous injection, 3 mice) was 2.16 +/− 0.48 % ID/g per organ normalized to % ID/g muscle. Also, where the note is “thymus, 60 min after intravenous injection, 3 mice”, the “Thymus, % ID/g per organ normalized to % ID/g muscle” value is on record as 3.29 +/− 0.48 % ID/g per organ normalized to % ID/g muscle. The “retention/visualization in dCK deficient, gemcitabine resistant tumors” value in data set [2] (L1210-10K) is listed as “did not accumulate”. Further, the “retention/visualization in dCK positive, gemcitabine sensitive tumors” value in data set [2] (L1210 WT) is reported as “clearly detectable”.
